Counter-ions that a name gives are not always drawn.
Legend:
human factor Xa = target: T1, human factor Xa (Homo sapiens, UniProt P00742); experiment: In vitro test on measurement of coagulation time by human activated blood coagulation factor X (human plasma); type: biochemical; details: for Test on Measurement of Coagulation Time by Human Activated Blood Coagulation Factor X (CT2): CT2 = concentration by which the coagulation time is prolonged 2-fold, human blood plasma; for anti-blood coagulation action (extension of coagulation time), in words: in vitro, human plasma
T1 construct: purchased Enzyme Research Labs
T1 sequence (P00742 235-488 limits assumed): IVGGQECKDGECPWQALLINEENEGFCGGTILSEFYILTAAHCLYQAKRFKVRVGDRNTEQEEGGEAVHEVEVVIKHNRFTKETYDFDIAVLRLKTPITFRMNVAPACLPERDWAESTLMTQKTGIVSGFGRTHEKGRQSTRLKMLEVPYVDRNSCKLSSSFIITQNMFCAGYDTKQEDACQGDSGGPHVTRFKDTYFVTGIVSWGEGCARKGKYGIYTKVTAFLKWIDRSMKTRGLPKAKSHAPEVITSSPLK
T1 sequence (P00742 41-179 partner limits assumed): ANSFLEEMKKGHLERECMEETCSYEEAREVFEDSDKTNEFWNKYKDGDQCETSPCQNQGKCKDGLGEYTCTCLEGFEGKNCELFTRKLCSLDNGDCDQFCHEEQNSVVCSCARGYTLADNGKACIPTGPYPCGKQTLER
Experimental: 1) An In Vitro Test on Measurement of Coagulation Time by Human Activated Blood Coagulation Factor X
To 90 μl of human blood plasma were added 10 μl of a drug or a physiological saline and 50 μl of human factor Xa (Enzyme Research Labs), incubation was carried out at 30° C. for 3 minutes, 100 μl of 20 mM CaCl2 previously warmed at 37° C. were added and the time until coagulation was measured by a coagulo-meter (KC10 of Amelung). With regard to the human blood plasma, each 45 ml of blood were collected from vein of elbow of six healthy persons using a syringe in which 5 ml of 3.8% sodium citrate were contained and centrifuged at 4° C. for 15 minutes at 3,000 rpm and the separate blood plasma was pooled and frozen, then thawed before use. With regard to the human factor Xa, the concentration by which the coagulation time when a physiological saline solution (control) was added was about 30 to 40 seconds was selected. A CT2 value (concentration by which the coagulation time is prolonged to an extent of 2-fold) was determined by plotting the drug concentrations and relative value (fold) of the coagulation time to the control, followed by subjecting to linear regression.

[1] = tested on: extrinsic coagulation time (PT); experiment: Ex vivo measurement of coagulation time in cynomolgus monkeys (oral administration), extrinsic coagulation time (PT); details: for Test on Measurement of Coagulation Time in Cynomolgus Monkeys (PT): relative ratio of coagulation time to control, blood collection point with the most potent extension
Experimental: 4) Test on Ex Vivo Measurement of Coagulation Time in Cynomolgus Monkeys (Oral Administration)
A drug (5 mg/ml or 0.5 mg/ml) which was dissolved (suspended) in 0.5% methylcellulose was compulsorily administered per os at a dose of 2 ml/kg (10 mg/kg or 1 mg/kg) via an oral gavage after blood collection before the administration of the drug to a male cynomolgus monkeys (body weight around 4 kg) fasted for 12 hours or longer and, after 1, 2, 4, 6 and 8 hour(s), 2 ml of blood was collected from femoral vein using 1/10 volume of 3.8% sodium citrate and blood plasma was separated by means of centrifugal treatment of 3,000 rpm for 10 minutes. Using the resulting blood plasma, extrinsic coagulation time (PT) and intrinsic coagulation time (APTT) were measured in accordance with the following methods a) and b). The experiment was carried out under non-anesthetization.
a) Extrinsic Coagulation Time (PT)
Ortho Brain Thromboplastin (54 mg/vial; a freeze-dried preparation; Ortho-Clinical Diagnostics) was dissolved in 2.5 ml of Milli-Q water and preliminarily warmed at 37° C. The above-separated blood plasma (50 μl) was warmed at 37° C. for 1 minute, 50 μl of the above-mentioned thromboplastin solution was added and the coagulation time was measured. KC10 of Amelung was used for the measurement of the coagulation time.

SMILES	Test on Measurement of Coagulation Time by Human Activated Blood Coagulation Factor X (CT2) (human factor Xa)	anti-blood coagulation action (extension of coagulation time), in words (human factor Xa)	Test on Measurement of Coagulation Time in Cynomolgus Monkeys (PT) ([1]; 10 mg/kg per os)	extending action for the coagulation time compared with control (Example 44 of WO 00/39118) ([1]; same dose as control (10 mg/kg), oral, cynomolgus monkeys)	Test on Measurement of Coagulation Time in Cynomolgus Monkeys (PT) ([1]; 1 mg/kg per os)
CC(C)N1CCC(CNc2c(O)cc(Cl)cc2C(=O)Nc2ccc(Cl)cn2)CC1 [Example 10]	0.617 µM	extend the coagulation time at low concentration	–	–	–
COC[C@H]1O[C@@H](Oc2cc(Br)cc(C(=O)Nc3ccc(Cl)cn3)c2NC(=O)C2CCN(C(C)C)CC2)[C@H](O)[C@@H](O)[C@@H]1O [Example 8]	0.137 µM	extend the coagulation time at low concentration	–	–	–
CC(=O)N[C@H]1[C@H](Oc2cc(Br)cc(C(=O)Nc3ccc(Cl)cn3)c2NC(=O)C2CCN(C(C)C)CC2)O[C@H](CO)[C@@H](O)[C@@H]1O [Example 3, 2′-(2-acetamido-2-deoxy-β-D-glucopyranosyloxy)-4′-bromo-6′-[(5-chloro-2-pyridyl)-carbamoyl]-1-isopropylpiperidine-4-carboxanilide trifluoroacetate]	–	–	5.60	–	–
CC(C)N1CCC(C(=O)Nc2ccc(Cl)cc2C(=O)Nc2ccc(Cl)cn2)CC1 [Control Compound, reference compound]	–	–	2.00	–	–
CC(C)N1CCC(C(=O)Nc2c(O[C@@H]3O[C@H](CO)[C@H](O)[C@H](O)[C@H]3O)cc(Br)cc2C(=O)Nc2ccc(Cl)cn2)CC1 [Example 1, trifluoroacetate]	0.295 µM	extend the coagulation time at low concentration	7.69	longer extending action for the coagulation time	–
CC(C)N1CCC(C(=O)Nc2c(O)cc(Br)cc2C(=O)Nc2ccc(Cl)cn2)CC1 [Example 19, 4′-bromo-2′-[(5-chloro-2-pyridyl)carbamoyl]-6′-hydroxy-1-isopropylpiperidine-4-carboxanilide hydrochloride]	–	–	–	–	2.26
CC(C)N1CCC(C(=O)Nc2c(O)cc(Cl)cc2C(=O)Nc2ccc(Cl)cn2)CC1 [Example 18, 4′-chloro-2′-[(5-chloro-2-pyridyl)carbamoyl]-6′-hydroxy-1-isopropylpiperidine-4-carboxanilide hydrochloride]	0.153 µM	extend the coagulation time at low concentration	–	–	1.94

Source: patent US7786106B2, “Substituted benzene derivatives or salts thereof” (Astellas Pharma Inc., priority 2003, dated 2010)
